# Results: paper PMC3734177, “Design, Synthesis, Evaluation and Thermodynamics of 1-Substituted Pyridylimidazo[1,5-a]Pyridine Derivatives as Cysteine Protease Inhibitors” (PLoS ONE, 2013)
# Where “and” joins values, the source holds several entries; their conditions need not be identical. Equal entries are not always repeated. Where two headings read alike, the source gives them in different places.
# Tests used:
# papain [1] = biological target: T1, papain (Carica papaya, UniProt P00784); assay: Cysteine protease inhibitory activity, papain with Bz-DL-Arg-pNA substrate; type: biochemical
# T1 construct: To solutions of active papain (final concentration: 0.05 mM); purchased Sigma Chemical Co., St. Louis, MO, USA
# T1 sequence (P00784 134-345): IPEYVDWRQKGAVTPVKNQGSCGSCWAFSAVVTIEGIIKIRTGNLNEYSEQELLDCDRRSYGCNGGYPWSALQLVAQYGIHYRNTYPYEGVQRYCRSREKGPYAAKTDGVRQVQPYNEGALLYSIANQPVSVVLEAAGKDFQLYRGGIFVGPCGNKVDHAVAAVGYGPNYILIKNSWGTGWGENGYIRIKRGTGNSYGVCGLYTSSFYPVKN
# Method: The capacity of the 1-pyridylimidazo[1,5-a]pyridine derivatives to inhibit cysteine proteases was tested using papain as the model enzyme. The proteolytic activity of the reaction mixtures was determined using Bz-DL-Arg-pNA as the chromogenic substrate. To solutions of active papain (final concentration: 0.05 mM) were added concentrated solutions of the different derivatives to final concentrations of 0.2 mM. […] The same procedure was used at 32°C and 42°C for thermodynamics studies. The kinetic parameters for the substrate hydrolysis were determined by measuring the initial rate of enzymatic activity. The inhibition constant Ki was determined by Dixon method and also by the Lineweaver–Burk equation. The Km value was calculated from the double-reciprocal equation by fitting the data into the computer software Origin 6.1. The Lineweaver–Burk plot was used to determine the types of inhibition. For the kinetic analysis and rate constant determinations, the assays were carried out in triplicate, and the average value was considered throughout this work.
# papain [2] = biological target: T1, papain; assay: Thermodynamics analysis of papain inhibition (Van't Hoff); type: biochemical; details: Value at 37°C
# Method: Free energy changes of inhibition of papain against 1- substituted pyridylimidazo[1,5-a] pyridine derivatives (ΔG) were determined by the equation, [drawing 1] (1)
# Temperature dependence of the inhibition constants was used to determine the thermodynamic parameters. Changes in enthalpy (ΔH) were determined from the Van’t Hoff plots by using the equation, [drawing 2] (2)
# Where ΔH is enthalpy change, R is gas constant, ΔS is entropy change and T is the absolute temperature. The entropy change was obtained from the equation, [drawing 3] (3)
# [3] = test system: Bacillus spp. (ATCC-14593); assay: MIC, micro dilution method; type: cell-based; details: ATCC14593; Bacillus sp.
# Method: (§1) The disk diffusion method was used for the preliminary antibacterial evaluation of 1-pyridylimidazo[1,5-a]pyridine derivatives. The MIC50 of these derivatives, showing inhibition in the preliminary tests, were further determined by the microtitre plate technique using micro dilution method. In brief, the bacterial strains (S. aureus, P. vulgaris, Group D Streptococci, Bacillus sp., E. coli, P. aeruginosa and S. morganii)) were grown and diluted to 2×10^5 colony-forming units (CFU)/ml in sodium phosphate buffer (SPB) containing 0.03% Luria–Bertani (LB) broth. The synthesized derivatives were dissolved in DMSO and their serial dilution was performed in 50 µL of LB medium in 96-well microtitre plate to achieve the required concentrations (0.1–10 µg/ml) with bacterial inoculums (5×10^4 CFU per well). DMSO was taken as negative control and Ceftriaxone and clotrimazole were taken as positive control. After incubation at 37°C overnight, the MICs were taken as the lowest inhibitor concentration at which the bacterial growth was inhibited. The average of three values was calculated and that was the MIC for the test material and bacterial strain. […]
# [4] = test system: Escherichia coli (ATCC-25922); assay: MIC, micro dilution method; type: cell-based; details: ATCC25922, E. coli
# Method: as §1
# [5] = test system: Proteus vulgaris (ATCC-29905); assay: MIC, micro dilution method; type: cell-based; details: ATCC29905, P. vulgaris
# Method: as §1
# [6] = test system: Pseudomonas aeruginosa (ATCC-27853); assay: MIC, micro dilution method; type: cell-based; details: ATCC27853
# Method: as §1
# [7] = test system: Staphylococcus aureus (ATCC-25923); assay: MIC, micro dilution method; type: cell-based; details: ATCC25923, S. aureus
# Method: as §1
# [8] = test system: Group D Streptococci (ATCC-12959); assay: MIC, micro dilution method; type: cell-based
# Method: (§2) The disk diffusion method was used for the preliminary antibacterial evaluation of 1-pyridylimidazo[1,5-a]pyridine derivatives. The MIC50 of these derivatives, showing inhibition in the preliminary tests, were further determined by the microtitre plate technique using micro dilution method. In brief, the bacterial strains (S. aureus, P. vulgaris, Group D Streptococci, Bacillus sp., E. coli, P. aeruginosa and S. morganii)) were grown and diluted to 2×10^5 colony-forming units (CFU)/ml in sodium phosphate buffer (SPB) containing 0.03% Luria–Bertani (LB) broth. The synthesized derivatives were dissolved in DMSO and their serial dilution was performed in 50 µL of LB medium in 96-well microtitre plate to achieve the required concentrations (0.1–10 µg/ml) with bacterial inoculums (5×10^4 CFU per well). DMSO was taken as negative control and Ceftriaxone and clotrimazole were taken as positive control. After incubation at 37°C overnight, the MICs were taken as the lowest inhibitor concentration at which the bacterial growth was inhibited. The average of three values was calculated and that was the MIC for the test material and bacterial strain.
# (§3) For the agar plate count method, 25 µL aliquots of bacteria at 1×10^5 CFU/ml in SPB containing 0.03% LB broth were incubated with 25 µL of diluted compounds for 2 h at 37°C. The mixtures of bacteria and compounds were serially diluted 10-fold with SPB and plated on LB plates that were incubated at 37°C overnight. Bacterial colonies were enumerated the following day.
# [9] = test system: Serratia morganii (ATCC- 31665); assay: MIC, micro dilution method; type: cell-based; details: ATCC31665
# Method: as §2, §3
# [10] = test system: Bacillus spp. (ATCC-14593); assay: MBC, sub cultivation from MIC plate; type: cell-based; details: ATCC14593, Bacillus sp.
# Method: (§4) After having determined the MICs, bacterial strains from the wells of the microtitre plate with no visible bacterial growth were removed for serial sub cultivation of 2 µl into another new microtitre plate containing 100 µl of broth per well and further incubated for 24 h. The lowest concentration with no visible growth was defined as MBC [28], indicating 99.5% killing of the original inoculum. The absorbance of each well was measured at a wavelength of 620 nm by Microplate Manager 4.0 (Bio-Rad laboratories) and compared with a blank. Solvent (DMSO) was used as a negative control. Three replicates were done for each compound and experiment was repeated two times.
# [11] = test system: Escherichia coli (ATCC-25922); assay: MBC, sub cultivation from MIC plate; type: cell-based; details: ATCC25922, E. coli
# Method: as §4
# [12] = test system: Group D Streptococci (ATCC-12959); assay: MBC, sub cultivation from MIC plate; type: cell-based
# Method: as §4
# [13] = test system: Proteus vulgaris (ATCC-29905); assay: MBC, sub cultivation from MIC plate; type: cell-based; details: ATCC29905, P. vulgaris
# Method: as §4
# [14] = test system: Pseudomonas aeruginosa (ATCC-27853); assay: MBC, sub cultivation from MIC plate; type: cell-based
# Method: as §4
# [15] = test system: Serratia morganii (ATCC- 31665); assay: MBC, sub cultivation from MIC plate; type: cell-based
# Method: as §4
# [16] = test system: Staphylococcus aureus (ATCC-25923); assay: MBC, sub cultivation from MIC plate; type: cell-based; details: ATCC25923, S. aureus
# Method: as §4
# [17] = test system: Bacillus spp. (ATCC-14593); assay: MIC, micro dilution method; type: cell-based; details: ATCC14593; Bacillus sp.; remark: listed apart in the source
structure (smiles),measurement,setting,value
"CC(C)(C)c1cc(-c2nc(-c3ccccn3)c3ccccn23)cc(C(C)(C)C)c1O [Compound 3d, 1-(2-pyridyl)-3-(3,5-di-tert-butyl-4-hydroxyphenyl) imidazo[1,5-a]pyridine]",Ki,papain [1]; 32°C,110 µM
same,Ki,papain [1]; 37°C,99.3 µM
same,Ki,papain [1]; 42°C,89.2 µM
same,Type of inhibition,papain [1]; Lineweaver–Burk plot,Non -Competitive
same,IC50,papain [1]; papain,96.5 µM
same,ΔG (free energy of binding),papain [2],−5.64 Kcalmol^−1 and −5.64(±0.24) Kcalmol^−1
same,ΔS (entropy change),papain [2],59.73(±1.93) Jmol-K^−1
same,ΔH (enthalpy change),papain [2]; Van't Hoff plot,−5.2 (±0.84) KJmol^−1
same,MIC50,[3],1.4 µg/mL
same,MIC50,[4],1.2 µg/mL
same,MIC90,[4],2.3 µg/mL
same,MIC50,[5],0.9 µg/mL
same,MIC90,[5],1.7 µg/mL
same,MIC50,[6],1.2 µg/mL
same,MIC90,[6],2 µg/mL
same,MIC50,[7],1.2 µg/mL
same,MIC90,[7],2.3 µg/mL
same,MIC50,[8],1 µg/mL
same,MIC90,[8],1.9 µg/mL
same,MIC50,[9],1.1 µg/mL
same,MIC90,[9],2.1 µg/mL
same,MBC,[10]; read-out: MBC50,2.5 µg/mL
same,MBC,[10]; read-out: MBC90,4.7 µg/mL
same,MBC,[11]; read-out: MBC50,2.5 µg/mL
same,MBC,[11]; read-out: MBC90,4.9 µg/mL
same,MBC,[12]; read-out: MBC50,2.3 µg/mL
same,MBC,[12]; read-out: MBC90,4.4 µg/mL
same,MBC,[13]; read-out: MBC50,1.7 µg/mL
same,MBC,[13]; read-out: MBC90,3.4 µg/mL
same,MBC,"[14]; ATCC27853, read-out: MBC50",2.4 µg/mL
same,MBC,"[14]; ATCC27853, read-out: MBC90",4.4 µg/mL
same,MBC,"[15]; ATCC31665, read-out: MBC50",2.4 µg/mL
same,MBC,"[15]; ATCC31665, read-out: MBC90",4.4 µg/mL
same,MBC,[16]; read-out: MBC50,2.6 µg/mL
same,MBC,[16]; read-out: MBC90,5.2 µg/mL
same,MIC90,[17],2.6 µg/mL
